According to patent US7732430B2, “Drug delivery system comprising a tetrahydroxilated estrogen for use in hormonal contraception” (Pantarhei Bioscience B.V., priority 2001, dated 2010):
Read-outs that look alike come from different tables or passages of the source.

What was measured:
[1] = target: T1, human sex Hormone Binding Globulin (SHBG) (Homo sapiens, UniProt P04278); assay: Competitive steroid-binding assay for human SHBG; conditions: for relative binding affinity for human SHBG: rank order ethinylestradiol < 17β-estradiol < testosterone < 5α-dihydrotestosterone
T1 construct: Human SHBG was purified from transgenic mouse serum; made in house; host or cells: transgenic mouse (serum)
T1 sequence (P04278 30-402): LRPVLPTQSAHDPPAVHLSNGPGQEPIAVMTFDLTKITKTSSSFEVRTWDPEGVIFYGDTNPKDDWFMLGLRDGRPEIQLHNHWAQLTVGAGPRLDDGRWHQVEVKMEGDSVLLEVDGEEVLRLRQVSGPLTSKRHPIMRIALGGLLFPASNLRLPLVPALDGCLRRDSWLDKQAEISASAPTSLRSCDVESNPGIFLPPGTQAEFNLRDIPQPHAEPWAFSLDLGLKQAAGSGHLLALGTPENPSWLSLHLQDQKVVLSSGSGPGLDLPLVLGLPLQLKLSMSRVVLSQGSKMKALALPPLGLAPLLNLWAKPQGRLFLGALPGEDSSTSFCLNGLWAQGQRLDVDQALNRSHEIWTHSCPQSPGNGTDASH
Protocol: Human SHBG was treated for 30 min at room temperature with a dextran-coated charcoal (DCC) suspension in phosphate buffered saline (PBS) to remove any steroid ligand. After centrifugation (2,000×g for 10 min) to sediment the DCC, the supernatant containing the human SHBG was diluted in PBS to a concentration of 1 nM based on its steroid binding capacity.
The average amounts of [^3H]labeled ligands bound to SHBG at each concentration of competitor (B) were expressed as a percentage of the average amounts of [^3H]labeled ligands bound to SHBG in the absence of competitor (B0), and were plotted against the concentration of competitor in each assay tube.

four-day cyclic rats = assay: Antiovulatory bioassay after oral administration; assay type: in vivo, rat; conditions: for ED50: Rattus norvegicus, 96 h
Protocol: A bioassay method (modified according to De Visser et al., 1984, Arzneim. […].
Rats are spontaneously ovulating, polyestrous mammals. Generally, proestrus lasts for 12 to 14 hours, estrus for 25 to 27 hours, metestrus for 6 to 8 hours, and diestrus for 55 to 57 hours (Freeman, 1988, In: The Physiology of Reproduction, E Knobil and J Neill (eds). Raven Press, Ltd, New York, pp. 1893-1928). These stages of the estrous cycle can be classified based on the cell types present in daily vaginal smears (Schwartz, 1969, Recent Prog. Horm. Res. 25, 1-55).
The preovulatory period of the rat estrous cycle is characterized by ovarian follicular growth and enhanced estrogen secretion. In the four-day cyclic rat, peripheral plasma levels of E2 are basal through estrus. At the end of metestrus and extending through early diestrus, plasma levels of E2 begin to rise. This increase continues through diestrus and early proestrus to reach peak values and plateau by mid-proestrus. Subsequently, E2 levels fall rapidly, reaching basal values by the early morning hours of estrus. The rising estrogen levels from late metestrus to early proestrus exert a positive feedback effect on the hypothalamic-pituitary axis resulting in a luteinizing hormone (LH) surge on the afternoon of proestrus. The LH surge induces follicular rupture and the release of ova in the early morning hours of estrus. By early afternoon on the day of estrus, ova are present in the ampulla of the oviduct and are readily visualized under a dissecting microscope.
Progesterone or levonorgestrel administered subcutaneously on diestrus to four-day cyclic rats is known to inhibit ovulation and increased the estrous cycle length in a dose-dependent manner (Beattie and Corbin, 1975, Endocrinology 97, 885-890). It was shown that the progestational block of ovulation takes place predominately via the hypothalamic-pituitary axis.
Vaginal smears from female rats were obtained daily for two weeks to identify four-day cycling rats. Only four-day cyclic rats were used for the antiovulatory bioassay. […] Twice daily dosing continued for an additional 3 consecutive days. One day after the final dose (day 5), the rats were euthanized by CO2 asphyxiation at approximately 1 pm, and the number of ova per oviduct was determined and recorded. Group means were calculated for the number of ova per ovulated rat (both oviducts). The ratio of rats ovulating for each treatment group was compared to the ratio for the vehicle-treated rats.

[2] = target: T2, estrogen receptors in the human endometrium (Homo sapiens, UniProt P03372); conditions: Tseng et al. 1978; cited from earlier work
T2 construct: estrogen receptors in the human endometrium; host or cells: human endometrium (nuclei)
T2 sequence (P03372 1-595): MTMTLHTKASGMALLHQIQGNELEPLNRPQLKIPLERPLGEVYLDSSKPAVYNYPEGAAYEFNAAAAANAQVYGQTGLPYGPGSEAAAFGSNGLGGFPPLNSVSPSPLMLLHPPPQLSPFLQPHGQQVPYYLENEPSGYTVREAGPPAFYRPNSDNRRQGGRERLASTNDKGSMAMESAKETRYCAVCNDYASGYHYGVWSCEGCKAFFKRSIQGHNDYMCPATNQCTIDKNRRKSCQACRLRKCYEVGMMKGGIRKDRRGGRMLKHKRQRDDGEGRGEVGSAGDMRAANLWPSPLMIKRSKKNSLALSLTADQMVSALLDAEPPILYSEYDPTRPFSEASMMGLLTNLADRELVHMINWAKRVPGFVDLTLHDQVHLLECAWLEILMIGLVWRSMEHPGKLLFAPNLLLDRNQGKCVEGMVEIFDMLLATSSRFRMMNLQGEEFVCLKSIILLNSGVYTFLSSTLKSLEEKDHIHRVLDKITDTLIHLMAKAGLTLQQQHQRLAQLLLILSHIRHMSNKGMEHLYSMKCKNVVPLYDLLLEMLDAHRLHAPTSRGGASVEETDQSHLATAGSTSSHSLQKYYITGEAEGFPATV

[3] = target: T3, rat uterine nuclear estrogen receptor (Rattus norvegicus, UniProt P06211); conditions: cited from earlier work
T3 construct: rat uterine cytosol estrogen receptor; host or cells: rat uterus (cytosol and nuclear fractions)
T3 sequence (P06211 1-600): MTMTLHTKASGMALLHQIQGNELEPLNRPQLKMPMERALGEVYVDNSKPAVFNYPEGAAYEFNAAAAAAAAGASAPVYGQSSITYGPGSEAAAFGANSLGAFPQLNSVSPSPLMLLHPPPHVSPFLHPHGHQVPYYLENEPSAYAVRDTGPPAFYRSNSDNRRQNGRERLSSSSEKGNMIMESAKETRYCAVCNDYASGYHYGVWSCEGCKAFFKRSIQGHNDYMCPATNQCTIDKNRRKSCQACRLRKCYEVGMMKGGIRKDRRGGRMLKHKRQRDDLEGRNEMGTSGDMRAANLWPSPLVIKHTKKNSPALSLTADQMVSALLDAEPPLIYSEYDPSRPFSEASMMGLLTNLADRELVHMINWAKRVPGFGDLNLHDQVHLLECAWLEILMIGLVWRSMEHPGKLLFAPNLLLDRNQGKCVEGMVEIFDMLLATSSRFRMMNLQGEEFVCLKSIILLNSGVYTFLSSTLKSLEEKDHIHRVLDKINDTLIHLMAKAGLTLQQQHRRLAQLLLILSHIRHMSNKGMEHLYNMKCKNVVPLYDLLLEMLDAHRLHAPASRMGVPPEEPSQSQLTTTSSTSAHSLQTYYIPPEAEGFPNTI

immature rat uterus = conditions: subcutaneous, cited from earlier work
[4] = intravenous, two adult women, tritium labeled; cited from earlier work
[5] = test system: ovariectomized adult rats; assay: Vaginal cornification bioassay after oral administration; assay type: in vivo, rat; conditions: 0.1 and 0.3 mg/kg/day po
Excerpt: Uterine weight increase in the rat is more commonly used as a measure of estrogenicity. […] In the early 1920s it was discovered that follicular fluid from the pig ovary contained a factor(s) that caused cornification/keratinization of the vaginal epithelium in the rat (Allen and Doisy, 1923, JAMA, 81, 819-821; Allen and Doisy, 1924, Am. J. Physiol., 69, 577-588). The so-called vaginal cornification response in rats subsequently provided a bioassay for testing estrogenicity. Vaginal epithelial cornification/keratinization in ovariectomized rats can be produced only by compounds considered to be true estrogens (Jones et al, 1973, Fert. Steril. 24, 284-291). […] Adult intact female CD rats were ovariectomized to induce estrogen deficiency. […] Castrate vaginal smears are indicative that complete ovariectomy was achieved. Treatment commenced following completion of the 7 days of smearing (day 0=first day of dosing). Animals were dosed, once daily for 7 consecutive days. Daily vaginal lavages continued to be obtained for 7 days after dosing was initiated in order to detect vaginal cornification, as an indication of an estrogenic response. A drop of vaginal washings was placed on a glass slide and examined by light microscopy to detect the presence or absence of cornified epithelial cells. Vaginal lavages were obtained prior to dosing on days 0-6 and prior to necropsy on day 7. […]

[6] = target: T4, rat uterine cytosol estrogen receptor (Rattus norvegicus, UniProt P06211); conditions: cited from earlier work
T4 construct: rat uterine cytosol estrogen receptor; host or cells: rat uterus (cytosol and nuclear fractions)
T4 sequence (P06211 1-600): T3 sequence (P06211 1-600)

nonpregnant ewes = conditions: intravenously administered; cited from earlier work
[7] = test system: human breast cancer cells (MCF-7); conditions: MCF-7, long term tissue culture; cited from earlier work
[8] = 30 μg/kg po twice daily for 4 days
[9] = 100 μg/kg po twice daily for 4 days
[10] = 300 μg/kg po twice daily for 4 days
[11] = 1000 μg/kg po twice daily for 4 days
[12] = 3000 μg/kg po twice daily for 4 days

For `C[C@]12CCC(=O)C[C@@H]1CC[C@@H]1[C@@H]2CC[C@]2(C)[C@@H](O)CC[C@@H]12` [5α-dihydrotestosterone, reference compound], the “relative binding affinity for human SHBG” value [1] was “in this order, show an increased relative binding affinity”.
For `C[C@]12CC[C@@H]3c4ccc(O)cc4CC[C@H]3[C@@H]1CC[C@@H]2O` [E2, 17β-estradiol, reference compound], the “ovulation blocked (rats of 8)” value (four-day cyclic rats; [8]) was “ineffective in inhibiting ovulation”, the “ovulation blocked (rats of 8)” value (four-day cyclic rats; [9]) was 7 of 8 and the “ovulation blocked (rats of 8)” value (four-day cyclic rats; [10]) was 8 of 8. For the same compound, the “ovulation blocked (rats of 8)” value (four-day cyclic rats; [11]) was 8 of 8, the “ovulation blocked (rats of 8)” value (four-day cyclic rats; [12]) was 8 of 8 and the ED50 (four-day cyclic rats; po twice daily for 4 days) was 0.03 to 0.1 mg/kg.
`C#C[C@]1(O)CC[C@H]2[C@@H]3CCc4cc(O)ccc4[C@H]3CC[C@@]21C` [EE, 17α-ethinyl estradiol, reference compound] gave an ED50 (four-day cyclic rats; po twice daily for 4 days) of 0.01 mg/kg.
In the case of `C[C@]12CC[C@@H]3c4ccc(O)cc4CC[C@H]3[C@@H]1[C@@H](O)[C@@H](O)[C@@H]2O` [estetrol, 1,3,5(10)-estratrien-3,15α,16α,17β-tetrol], the “relative binding, % of 17β-estradiol” value [2] is listed as 1.5%, the “relative binding affinity, 17β-estradiol = 100%” value [3] is listed as 0.3% and the uterotrophic activity (immature rat uterus; Holinka et al. 1979) is listed as “very weak uterotrophic activity”. For the same compound, the uterotrophic activity (immature rat uterus; Holinka et al. 1980) was “very weak uterotrophic activity”, the excretion [4] was “rapidly and completely excreted in urine as the glucosiduronate” and the metabolism [4] was “virtually no metabolism except for conjugation”. The “onset of vaginal cornification (animals responding at days 1-3)” value [5] was “as fast as in EE-treated animals”, the “relative binding affinity, 17β-estradiol = 100%” value [6] was 0.5% and the “potency in uterine vasodilation, times less potent than estriol and 17β-estradiol” value (nonpregnant ewes) was 15 to 30 times. The “agonistic potency relative to 17β-estradiol in cell proliferation” value [7] was 2%, the “binding to human SHBG” value ([1]; [3H]DHT as labeled ligand) was “does not bind at all” and the “binding to human SHBG” value ([1]; [3H]estradiol as labeled ligand) was “does not bind at all”. For the same compound, the “relative binding affinity for human SHBG” value [1] was “negligible”, the “ovulation blocked (rats of 8)” value (four-day cyclic rats; [8]) was “failed to inhibit ovulation” and the “ovulation blocked (rats of 8)” value (four-day cyclic rats; [9]) was 2 of 8. The “ovulation blocked (rats of 8)” value (four-day cyclic rats; [10]) was 5 of 8, the “ovulation blocked (rats of 8)” value (four-day cyclic rats; [11]) was 7 of 8 and the “ovulation blocked (rats of 8)” value (four-day cyclic rats; [12]) was 8 of 8. For the same compound, the ED50 (four-day cyclic rats; po twice daily for 4 days) was 0.182 mg/kg, the “antiovulatory potency compared with E2” value (four-day cyclic rats; po twice daily for 4 days) was “approximates the antiovulatory potency of E2” and the “antiovulatory potency, times less potent than ethinylestradiol” value (four-day cyclic rats; po twice daily for 4 days) was 18 times.
With `C[C@]12CC[C@H]3[C@@H](CCC4=CC(=O)CC[C@@]43C)[C@@H]1CC[C@@H]2O` [testosterone, reference compound] the “relative binding affinity for human SHBG” value [1] was “in this order, show an increased relative binding affinity”.
